From patent US20030077317A1, “Methods and compositions for enhancing the bioadhesive properties of polymers using organic excipients” (Brown University Research Foundation, priority 1996, published 2003) come the findings set out here.

The subject of data set [1] is everted intestine. The data set is described as follows: Distribution of acetaminophen in tissue compartments after incubation of everted intestine in vitro. In kind it is in vitro ADME, rat. The procedure:
An in vitro assay for quantifying bioadhesion of microspheres to intestinal tissue was used to test the hot melt microspheres made as described in Example 2 (Jacob et al., Proceed,. Intern. Symp. Control. Rel. Bioact. Mater. 22:312-313 (1995). Everted sac experiments were performed using the microsphere formulations listed above. 6 cm segments of rat jejunum flushed with phosphate buffered saline (PBS), everted and fashioned into sacs filled with PBS. Sacs were incubated with 60 mg of microspheres in 5 ml of PBS at 37° C. with end-over-end agitation. After 30 min, the sacs were removed and the unbound microspheres were collected, washed with distilled water, frozen and lyophilized for 24 hrs. The weight of unbound beads was used to determine the amount of beads bound to the intestine:
The FAPP:SAPP 92:8 18% acetaminophen microspheres were made using the hot melt method described in Example 2, and were used in everted sac experiments and the release of drug was determined to yield information on bioavailability. The release was determined by homogenizing intestinal tissue and mucosal and serosal fluids. The homogenates were centrifuged and the supernatant fluids were assayed for acetaminophen.

The subject of data set [2] is rats. The data set is described as follows: Oral (stomach tube) insulin delivery in rat model, glucose tolerance after subcutaneous glucose load. In kind it is in vivo. The note with it: fed by stomach tube, by 3 hours. The procedure:
The delivery of insulin after adminstration of the nanoparticles, loaded with 10% (w/w) micronized FeO, was studied in a rat model. Five 300 g fasted rats were anaesthetized with Metofane and fed the following formulations by stomach tube: Rats 1 and 2: 0.5 mL saline Rat 3: 24 I.U. insulin/0.5 mL saline (amorphous suspension) Rats 4 and 5: 50 mg FAPP/PLGA nanospheres containing 20 I.U. insulin and 10% (w/w)FeO Blood samples from the tail vein were taken as an initial baseline and rats were subsequently tested for glucose tolerance following injection of a subcutaneous glucose load, consisting of 5 mL of 5% sterile glucose solution. Tutwiler et al., Diabetes, 27:856-867 (1978). At 1, 3, 4 and 5 hours postfeeding, blood samples were again taken and plasma glucose levels were measured spectrophotometrically at 505 nm using the Trinder glucose assay.

Consider `CC(=O)Nc1ccc(O)cc1` [control, acetaminophen], for which, in data set [1] (everted intestine in vitro), the “acetaminophen in gut wall” value came to 19 ± 7 mg/dL, the “acetaminophen in mucosal fluid” value stood at 39 ± 1 mg/dL, the “acetaminophen in serosal fluid” value turned out to be 13 ± 1 mg/dL and the mucosal/serosal ratio is given as 3.0. In data set [1] (everted sac), the “acetaminophen distribution, gut wall” value is on record as 7.9 ± 0.9 % of total dose; the “acetaminophen distribution, mucosal fluid” value is on record as 86.5 ± 1.5 % of total dose; the “acetaminophen distribution, serosal fluid” value is reported as 5.7 ± 0.9 % of total dose.

Consider insulin [oral insulin solution], for which, in data set [2], the “increase in blood glucose level over fasting baseline” value was found to be 62%.
